From patent US20090270407A1, “FUNGICIDAL ISOXAZOLIDINES” (E. I. DU PONT DE NEMOURS AND COMPANY, priority 2008, published 2009)
Like-named read-outs stand apart in the source and are kept apart here. Marks after values point to notes of the source that are not given here.

Key:
Conditions in all cases: 100 = 100 % disease control, 0 = no disease control relative to controls
[1] = test system: Erysiphe graminis f. sp. tritici; test: Test A: wheat powdery mildew, preventive spray on wheat seedlings, visual disease rating
[2] = test system: Phytophthora infestans; format: in vivo
[3] = test system: Puccinia recondita f. sp. tritici; test: Test B: wheat leaf rust, preventive spray on wheat seedlings, visual disease rating
Excerpt: (§1) General protocol for preparing test suspensions for Tests A-I: The test compounds were first dissolved in acetone in an amount equal to 3% of the final volume and then suspended at the desired concentration (in ppm) in acetone and purified water (50/50 mix) containing 250 ppm of the surfactant Trem® 014 (polyhydric alcohol esters). The resulting test suspensions were then used in Tests A-I. Spraying a 200 ppm test suspension to the point of run-off on the test plants was the equivalent of a rate of 500 g/ha.
The test suspension was sprayed to the point of run-off on wheat seedlings. The following day the seedlings were inoculated with a spore suspension of Puccinia recondita f. sp. tritici (the causal agent of wheat leaf rust) and incubated in a saturated atmosphere at 20° C. for 24 h, and then moved to a growth chamber at 20° C. for 7 days, after which time visual disease ratings were made.
(§2) All results are for 200 ppm except where followed by “*” which indicates 40 ppm.

[4] = test system: Botrytis cinerea; test: Test E: tomato Botrytis, preventive spray on tomato seedlings, visual disease rating
Excerpt: as §1
The test suspension was sprayed to the point of run-off on tomato seedlings. The following day the seedlings were inoculated with a spore suspension of Botrytis cinerea (the causal agent of tomato Botrytis) and incubated in saturated atmosphere at 20° C. for 48 h, and then moved to a growth chamber at 24° C. for 3 additional days, after which time visual disease ratings were made.
as §2

[5] = test system: Septoria nodorum; test: Test C: wheat glume blotch, preventive spray on wheat seedlings, visual disease rating
Protocol: (An asterisk “*” next to the rating value indicates a 40 ppm test suspension.)
The test suspension was sprayed to the point of run-off on wheat seedlings. The following day the seedlings were inoculated with a spore suspension of Septoria nodorum (the causal agent of wheat glume blotch) and incubated in a saturated atmosphere at 20° C. for 48 h, and then moved to a growth chamber at 20° C. for 7 days, after which time visual disease ratings were made.
(§3) A dash (−) indicates no test results. All results are for 200 ppm except where followed by “*” which indicates 40 ppm.

[6] = test system: Rhizoctonia oryzae; test: Test G: turf brown patch, preventive spray on creeping bent grass seedlings, visual disease rating
Protocol: The test suspension was sprayed to the point of run-off on creeping bent grass seedlings. The following day the seedlings were inoculated with a spore suspension of Rhizoctonia oryzae (the causal agent of turf brown patch) and incubated in a saturated atmosphere at 27° C. for 48 h, and then moved to a growth chamber at 27° C. for 3 days, after which time visual disease ratings were made.
as §3

[7] = test system: Alternaria solani; test: Test F: tomato early blight, preventive spray on tomato seedlings, visual disease rating
Excerpt: (§4) General protocol for preparing test suspensions for Tests A-I: The test compounds were first dissolved in acetone in an amount equal to 3% of the final volume and then suspended at the desired concentration (in ppm) in acetone and purified water (50/50 mix) containing 250 ppm of the surfactant Trem® 014 (polyhydric alcohol esters). The resulting test suspensions were then used in Tests A-I. Spraying a 200 ppm test suspension to the point of run-off on the test plants was the equivalent of a rate of 500 g/ha. (An asterisk “*” next to the rating value indicates a 40 ppm test suspension.)
The test suspension was sprayed to the point of run-off on tomato seedlings. The following day the seedlings were inoculated with a spore suspension of Alternaria solani (the causal agent of tomato early blight) and incubated in a saturated atmosphere at 27° C. for 48 h, and then moved to a growth chamber at 20° C. for 5 days, after which time visual disease ratings were made.
as §3

[8] = test system: Plasmopara viticola; test: Test I: grape downy mildew, spray on grape seedlings after inoculation, visual disease rating
Excerpt: as §4
Grape seedlings were inoculated with a spore suspension of Plasmopara viticola (the causal agent of grape downy mildew) and incubated in a saturated atmosphere at 20° C. for 24 h. After a short drying period, the test suspension was sprayed to the point of run-off on the grape seedlings and then moved to a growth chamber at 20° C. for 6 days, after which time the test units were placed back into a saturated atmosphere at 20° C. for 24 h. Upon removal, visual disease ratings were made.
as §2

[9] = test system: Septoria tritici; test: Test D: wheat leaf blotch, preventive spray on wheat seedlings, visual disease rating; format: in vivo
Excerpt: A dash (−) indicates no test results.

Compound | Test A disease control rating ([1]; 200 ppm) | Test H disease control rating ([2]; 200 ppm) | Test B disease control rating ([3]; 200 ppm) | Test E disease control rating ([4]; 200 ppm) | Test C disease control rating ([5]; 200 ppm) | Test G disease control rating ([6]; 200 ppm) | Test F disease control rating ([7]; 200 ppm) | Test I disease control rating ([8]; 200 ppm) | Test D disease control rating ([9]; 40 ppm (marked *)) | Test C disease control rating ([5]; 40 ppm (marked *)) | Test A disease control rating ([1]; 40 ppm (marked *)) | Test F disease control rating ([7]; 40 ppm (marked *)) | Test H disease control rating ([2]; 40 ppm (marked *)) | Test B disease control rating ([3]; 40 ppm (marked *)) | Test E disease control rating ([4]; 40 ppm (marked *)) | Test I disease control rating ([8]; 40 ppm (marked *)) | Test D disease control rating ([9]; 200 ppm) | Test G disease control rating ([6]; 40 ppm (marked *))
CN1OC(C)(c2cccnc2)CC1c1ccc(Br)cc1 (racemic) [Compound 3] | 93% | 0% | 0% | 79% | – | – | – | – | – | – | – | – | – | – | – | – | – | –
CN1OC(C)(c2cccnc2)CC1c1ccc(Br)cc1 (racemic) [Compound 4] | 90% | 0% | 32% | 80% | 100% | 0% | 0% | 0% | – | – | – | – | – | – | – | – | – | –
CN1OC(C)(c2cccnc2)CC1c1ccc(C(C)(C)C)cc1 (racemic) [Compound 7] | 99% | 0% | 34% | 99% | 69% | 0% | 40% | 0% | – | – | – | – | – | – | – | – | – | –
CN1OC(C)(c2cccnc2)CC1c1ccc(C(C)(C)C)cc1 (racemic) [Compound 8] | 99% | 0% | 69% | 56% | 40% | 0% | 0% | 0% | – | – | – | – | – | – | – | – | – | –
CN1OC(C)(c2cccnc2)CC1c1ccc(Oc2ccccc2)cc1 (racemic) [Compound 9] | 99% | 17% | 82% | 99% | 95% | 0% | 78% | 0% | – | – | – | – | – | – | – | – | – | –
CN1OC(C)(c2cccnc2)CC1c1ccc(Oc2ccccc2)cc1 (racemic) [Compound 10] | 93% | 0% | 82% | 98% | 98% | 0% | 0% | 0% | – | – | – | – | – | – | – | – | – | –
CN1OC(C)(c2cccnc2)CC1c1ccc(-c2ccccc2)cc1 (racemic) [Compound 11] | 99% | 0% | 91% | 99% | 97% | 0% | 26% | 0% | – | – | – | – | – | – | – | – | – | –
CN1OC(C)(c2cccnc2)CC1c1ccc(-c2ccccc2)cc1 (racemic) [Compound 12] | 99% | 0% | 74% | 29% | 82% | 0% | 0% | 0% | – | – | – | – | – | – | – | – | – | –
Cc1ccc(-c2ccc(C3CC(C)(c4cccnc4)ON3C)cc2)cc1 (racemic) [Compound 14] | – | – | – | – | – | – | – | – | 0* % | 0* % | 91* % | 0* % | 0* % | 0* % | 0* % | 0* % | – | –
CN1OC(C)(c2cccnc2)CC1c1ccc(I)cc1 (racemic) [Compound 15] | 99% | 0% | 0% | 98% | 99% | – | 100% | 0% | – | – | – | – | – | – | – | – | 98% | –
CN1OC(C)(c2cccnc2)CC1c1ccc(I)cc1 (racemic) [Compound 16] | 99% | 0% | 0% | 56% | 95% | – | 0% | 0% | – | – | – | – | – | – | – | – | 96% | –
CN1OC(C)(c2cccnc2)CC1c1ccc(-c2ccc(OC(F)(F)F)cc2)cc1 (racemic) [Compound 17] | – | – | – | – | – | – | – | – | 30* % | 0* % | 100* % | 15* % | 0* % | 0* % | 94* % | 0* % | – | –
CN1OC(C)(c2cccnc2)CC1c1ccc(-c2ccc(OC(F)(F)F)cc2)cc1 (racemic) [Compound 18] | – | – | – | – | – | – | – | – | 58* % | 0* % | 0* % | 7* % | 0* % | 0* % | 0* % | 0* % | – | 0* %
CN1OC(C)(c2cccnc2)CC1c1ccc(Oc2ccc(F)cc2)cc1 (racemic) [Compound 19] | 98% | 0% | 91% | 98% | 99% | 0% | 7% | 0% | – | – | – | – | – | – | – | – | 98% | –
CN1OC(C)(c2cccnc2)CC1c1ccc(-n2cccn2)cc1 (racemic) [Compound 33] | – | – | – | – | – | – | – | – | 80* % | 99* % | 99* % | 58* % | 0* % | 0* % | 39* % | 0* % | – | –
CN1O[C@](C)(c2cccnc2)C[C@@H]1c1ccc(Cl)cc1 (relative stereo) [Compound 1, rel-3-[(3R,5S)-3-(4-chlorophenyl)-2,5-dimethyl-5-isoxazolidinyl]pyridine] | 97% | 0% | 0% | 83% | 100% | 0% | 0% | 0% | – | – | – | – | – | – | – | – | – | –
CN1O[C@@](C)(c2cccnc2)C[C@@H]1c1ccc(Cl)cc1 (relative stereo) [Compound 2, rel-3-[(3R,5R)-3-(4-chlorophenyl)-2,5-dimethyl-5-isoxazolidinyl]pyridine] | 72% | 0% | 0% | 0% | 99% | 0% | 0% | 17% | – | – | – | – | – | – | – | – | – | –
Cc1ccc(-c2ccc([C@H]3C[C@@](C)(c4cccnc4)ON3C)cc2)cc1 (relative stereo) [Compound 13, rel-3-[(3R,5S)-2,5-dimethyl-3-(4′-methyl[1,1′-biphenyl]-4-yl)-5-isoxazolidinyl]pyridine] | – | – | – | – | – | – | – | – | 92* % | 0* % | 99* % | 0* % | 0* % | 0* % | 99* % | 0* % | – | –
CN1O[C@](C)(c2cccnc2)C[C@@H]1c1ccc(-n2ccc(C(F)(F)F)n2)cc1 (relative stereo) [Compound 35, rel-3-[(3R,5S)-2,5-dimethyl-3-[4-[3-(trifluoromethyl)-1H-pyrazol-1-yl]phenyl]-5-isoxazolidinyl]pyridine] | – | – | – | – | – | – | – | – | 99* % | 100* % | 100* % | 98* % | 0* % | 100* % | 99* % | 0* % | – | –
CN1OC(C)(c2cccnc2)CC1c1ccc(Cl)c(Cl)c1 (stereo not drawn) [Compound 5] | 98% | 0% | 0% | 91% | 0% | 0% | 51% | 0% | – | – | – | – | – | – | – | – | – | –
CN1OC(C)(c2cccnc2)CC1c1ccc(Cl)c(Cl)c1 (stereo not drawn) [Compound 6] | 99% | 0% | 0% | 0% | 0% | 0% | 0% | 17% | – | – | – | – | – | – | – | – | – | –
CN1OC(C)(c2cccnc2)CC1c1ccc(-n2cccn2)cc1 (stereo not drawn) [Compound 34] | – | – | – | – | – | – | – | – | 88* % | 99* % | 98* % | 6* % | 0* % | 0* % | 56* % | 0* % | – | –
